Results reported in patent US20250339504A1, “CANCER VACCINE WITH USE OF COMMON CANCER ANTIGEN COCKTAIL, TCR/CAR-T CELL THERAPEUTIC, COMPANION DIAGNOSTIC METHOD, AND METHOD FOR DIAGNOSING RISK OF CANCER ONSET BY DETECTING CIRCULATING TUMOR CELLS” (National Cancer Center, priority 2022, published 2025).

What was measured:
HLA-A*24:02 Tgm = assay: Long peptide vaccine, IFN-γ ELISpot, HLA-A*24:02 Tgm; assay type: in vivo, mice; settings: long peptide (15 to 21 mer) containing the short peptide, CTLs reactive with the short peptide
Protocol: (§1) In ELISpot assay, CD8-positive T cells were isolated from splenocytes of immunized mice by means of an MACS, and suspended at 1×10^5 cells/well, and the resultant was used as effector cells. Splenocytes of unimmunized mice were subjected to radiation (100 kV, 10 mA, 100 Gy), and suspended at a concentration of 2×10^6 cells/well in Final medium supplemented with any one of the peptides at a concentration of 20 ug/ml, and the resultant was used as target cells.

[1] = tested on: HLA-A*24:02 transgenic mice; assay: Peptide vaccine CTL induction, IFN-γ ELISpot, HLA-A*24:02 Tgm; assay type: in vivo; settings: HLA-A*24:02-restricted short peptide vaccine once per week, three times, splenocytes
Protocol: (§2) The predicted antigen peptides were evaluated on the capability of inducing CTLs by using transgenic mice with an HLA gene introduced therein. Each peptide was dissolved in dimethyl sulfoxide (DMSO, FUJIFILM Wako Pure Chemical Corporation) at 10 mg/ml, and HLA transgenic mice were immunized with the resultant together with an adjuvant every week, three times in total. One week after that, the spleens were extracted, and the productions of IFN-γ were evaluated through IFN-γ ELISpot assay.
as §1
(§3) FIG. 14, FIG. 15, and Table 1 show identification of multiple peptides each capable of inducing CD8-positive killer T cells (CTLs) reactive with the peptide in splenocytes of mice systemically expressing human HLA-A*24:02 or HLA-A*02:01 in their cells by screening, wherein a peptide vaccine of peptides predicted to be presented by HLA-A*24:02 or HLA-A*02:01 and synthesized from the amino acid sequences of the ten common cancer antigen full-length proteins was administered once per week, three times in total. The rates of inducing CTLs reactive with those peptides were 30 peptides in the 72 HLA-A*24:02-restricted common cancer antigen short peptides, and 38 peptides in the 73 HLA-A*02:01-restricted common cancer antigen short peptides; 68 peptides in the 145 peptides in total.

[2] = tested on: HLA-A*02:01 transgenic mice; assay: Peptide vaccine CTL induction, IFN-γ ELISpot, HLA-A*02:01 Tgm; assay type: in vivo; settings: HLA-A*02:01-restricted short peptide vaccine once per week, three times, splenocytes
Protocol: as §2, §1, §3

HLA-A*02:01 Tgm = assay: Long peptide vaccine, IFN-γ ELISpot, HLA-A*02:01 Tgm; assay type: in vivo, mice; settings: long peptide (15 to 21 mer) containing the short peptide, CTLs reactive with the short peptide
Protocol: as §1

## ADFSGLLEKC [CA24 105]
HLA-A*24:02 Tgm
  Long peptide reaction: No
[1]
  CTL induction: Yes

## AFEFVGEFF [A24-GPC3-17]
HLA-A*24:02 Tgm
  Long peptide reaction: No
[1]
  CTL induction: Yes

## ALFTGWAAA [CLDN1-A02-2]
[2]
  CTL induction: Yes
HLA-A*02:01 Tgm
  Long peptide reaction: No

## AWSYGIVMW [CA24 123]
[1]
  CTL induction: Yes

## AYLEVTDVI [CA24 91]
[1]
  CTL induction: Yes

## AYMLEVYGSL [LAT1-A24-5]
HLA-A*24:02 Tgm
  Long peptide reaction: No
[1]
  CTL induction: Yes

## AYYPEDLFI [A24-GPC3-11]
HLA-A*24:02 Tgm
  Long peptide reaction: No
[1]
  CTL induction: Yes

## CYAELGTTI [LAT1-A24-2]
HLA-A*24:02 Tgm
  Long peptide reaction: Yes
[1]
  CTL induction: Yes

## DFSGLLEKC [CA02 104]
[2]
  CTL induction: Yes
HLA-A*02:01 Tgm
  Long peptide reaction: No

## DFSGLLEKC [CA24 102]
HLA-A*24:02 Tgm
  Long peptide reaction: No
[1]
  CTL induction: Yes

## DYIGPCKYI [CA24 54]
[1]
  CTL induction: Yes

## EFGQALFTGW [CLDN1-A24-5]
HLA-A*24:02 Tgm
  Long peptide reaction: No
[1]
  CTL induction: Yes

## ELFDSLFPV [CA02 12]
[2]
  CTL induction: Yes

## FFTDVSLYI [A02-GPC3-18]
[2]
  CTL induction: Yes

## FFTDVSLYI [A24-GPC3-10]
[1]
  CTL induction: Yes

## FIFHKDLCQ [CA02 103]
[2]
  CTL induction: Yes
HLA-A*02:01 Tgm
  Long peptide reaction: No

## FIFHKDLCQA [CA02 101]
[2]
  CTL induction: Yes
HLA-A*02:01 Tgm
  Long peptide reaction: No

## FLAELAYDL [CA02 11]
[2]
  CTL induction: Yes
HLA-A*02:01 Tgm
  Long peptide reaction: Yes

## FLIIQNAAV [A02-GPC3-12]
[2]
  CTL induction: Yes
HLA-A*02:01 Tgm
  Long peptide reaction: No

## FLLCLAGRAL [CA02 56]
[2]
  CTL induction: Yes
HLA-A*02:01 Tgm
  Long peptide reaction: No

## FLRRGPFEL [CA02 21]
[2]
  CTL induction: Yes

## FTYEDPNEAV [CA02 127]
[2]
  CTL induction: Yes

## GLDEEQHSV [CA02 121]
[2]
  CTL induction: Yes
HLA-A*02:01 Tgm
  Long peptide reaction: Yes

## GQFTVIQLV [CA02 126]
[2]
  CTL induction: Yes

## GWAAASLCL [CLDN1-A24-7]
HLA-A*24:02 Tgm
  Long peptide reaction: No
[1]
  CTL induction: Yes

## HFFATKCTL [CA24 55]
[1]
  CTL induction: Yes

## HLIDKVISTI [CA02 82]
[2]
  CTL induction: Yes

## HYAKIAADF [CA24 21]
HLA-A*24:02 Tgm
  Long peptide reaction: No
[1]
  CTL induction: Yes

## ILMVFSIWL [CA02 95]
[2]
  CTL induction: Yes
HLA-A*02:01 Tgm
  Long peptide reaction: Yes

## ILPYCRPTF [CA24 98]
HLA-A*24:02 Tgm
  Long peptide reaction: Yes
[1]
  CTL induction: Yes

## ILSMIHPQL [LAT1-A02-4]
[2]
  CTL induction: Yes
HLA-A*02:01 Tgm
  Long peptide reaction: No

## IVMWEVMSF [CA24 127]
[1]
  CTL induction: Yes

## IYTWIEDHF [CA24 32]
HLA-A*24:02 Tgm
  Long peptide reaction: No
[1]
  CTL induction: Yes

## KLCGPYEKF [CA24 23, hHSP105α HLA-A*24:02 short peptide]
[1]
  CTL induction: peptide-specific IFN-γ production had been found

## KLDVGNIVL [LAT1-A02-3]
[2]
  CTL induction: Yes

## KMKPLLPRV [CA0233]
[2]
  CTL induction: Yes

## KYFTNCKQW [CA24 85]
[1]
  CTL induction: Yes

## KYVCVGTNM [CA24 95]
[1]
  CTL induction: Yes

## KYWREYILSL [A24-GPC3-06]
HLA-A*24:02 Tgm
  Long peptide reaction: No
[1]
  CTL induction: Yes

## LLQKIEVPL [CA02 24]
[2]
  CTL induction: Yes

## LLTPVPSLV [LAT1-A02-2]
[2]
  CTL induction: Yes

## LQLLGFILA [CLDN1-A02-6]
[2]
  CTL induction: Yes

## MLVAAIQSA [CA02 86]
[2]
  CTL induction: Yes
HLA-A*02:01 Tgm
  Long peptide reaction: No

## MYIFPVHWQF [CA24 51]
HLA-A*24:02 Tgm
  Long peptide reaction: No
[1]
  CTL induction: Yes

## NYGIYKQDL [CA24 25, hHSP105α HLA-A*24:02 short peptide]
[1]
  CTL induction: peptide-specific IFN-γ production had been found

## PFSKVLTFL [CA24 22, hHSP105α HLA-A*24:02 short peptide]
[1]
  CTL induction: peptide-specific IFN-γ production had been found

## PYPEAKIGRF [CA24 24, hHSP105α HLA-A*24:02 short peptide]
[1]
  CTL induction: peptide-specific IFN-γ production had been found

## QLLTPVPSL [LAT1-A02-1]
[2]
  CTL induction: Yes
HLA-A*02:01 Tgm
  Long peptide reaction: No

## RIYDMENVLL [A02-GPC3-10]
[2]
  CTL induction: Yes

## RLEAGDHPV [CA02 52]
[2]
  CTL induction: Yes
HLA-A*02:01 Tgm
  Long peptide reaction: No

## RYLTLDQVF [CA24 31]
HLA-A*24:02 Tgm
  Long peptide reaction: No
[1]
  CTL induction: Yes

## SLVSNVNIEL [CA02 83]
[2]
  CTL induction: Yes
HLA-A*02:01 Tgm
  Long peptide reaction: Yes

## STIHDSIQYV [A02-GPC3-14]
[2]
  CTL induction: Yes
HLA-A*02:01 Tgm
  Long peptide reaction: Yes

## SYGIVMWEV [CA24 124]
HLA-A*24:02 Tgm
  Long peptide reaction: Yes
[1]
  CTL induction: Yes

## SYMAMIQFAI [CA24 34]
HLA-A*24:02 Tgm
  Long peptide reaction: No
[1]
  CTL induction: Yes

## TFDSSCHFF [CA24 53]
HLA-A*24:02 Tgm
  Long peptide reaction: No
[1]
  CTL induction: Yes

## TIHDSIQYV [CA02 13]
[2]
  CTL induction: Yes
HLA-A*02:01 Tgm
  Long peptide reaction: Yes

## TMNDSLSKI [CA0235]
[2]
  CTL induction: Yes
HLA-A*02:01 Tgm
  Long peptide reaction: No

## TVDGSTFSV [CA02 92]
[2]
  CTL induction: Yes

## VIADRPPPV [CA02 97]
[2]
  CTL induction: Yes
HLA-A*02:01 Tgm
  Long peptide reaction: Yes

## VLDSLVSNV [CA02 81]
[2]
  CTL induction: Yes

## VLLGLFSTI [CA02 15]
[2]
  CTL induction: Yes
HLA-A*02:01 Tgm
  Long peptide reaction: Yes

## VMSWIIPVF [LAT1-A24-6]
[1]
  CTL induction: Yes

## WYGNRIVQEF [CLDN1-A24-2]
HLA-A*24:02 Tgm
  Long peptide reaction: No
[1]
  CTL induction: Yes

## YGNRIVQEF [CLDN1-A24-4]
HLA-A*24:02 Tgm
  Long peptide reaction: No
[1]
  CTL induction: Yes

## YIFPVHWQF [CA24 52]
HLA-A*24:02 Tgm
  Long peptide reaction: No
[1]
  CTL induction: Yes

## YIIEAFSHA [CA02 91]
[2]
  CTL induction: Yes

## YLIGHGTKV [CA02 122]
[2]
  CTL induction: Yes

## YMLEVYGSL [LAT1-A02-5]
[2]
  CTL induction: Yes
HLA-A*02:01 Tgm
  Long peptide reaction: No

## YSYAGDNIV [CLDN1-A02-5]
[2]
  CTL induction: Yes

## YYICQTLNV [CA24 97]
HLA-A*24:02 Tgm
  Long peptide reaction: No
[1]
  CTL induction: Yes
